# Source: ChEMBL document CHEMBL4000242, “Discovery of furan carboxylate derivatives as novel inhibitors of ATP-citrate lyase via virtual high-throughput screening” (Bioorg Med Chem Lett, 2017)
# Active and inactive are the calls of the source. The rule behind the calls is not given here.
# Key:
# [1] = target: T1, ATP-citrate synthase (Homo sapiens) (UniProt P53396); test: Competitive inhibition of ATP citrate lyase (unknown origin) using sodium citrate as substrate by ADP-Glo luminescence assay
# T1 sequence (whole entry): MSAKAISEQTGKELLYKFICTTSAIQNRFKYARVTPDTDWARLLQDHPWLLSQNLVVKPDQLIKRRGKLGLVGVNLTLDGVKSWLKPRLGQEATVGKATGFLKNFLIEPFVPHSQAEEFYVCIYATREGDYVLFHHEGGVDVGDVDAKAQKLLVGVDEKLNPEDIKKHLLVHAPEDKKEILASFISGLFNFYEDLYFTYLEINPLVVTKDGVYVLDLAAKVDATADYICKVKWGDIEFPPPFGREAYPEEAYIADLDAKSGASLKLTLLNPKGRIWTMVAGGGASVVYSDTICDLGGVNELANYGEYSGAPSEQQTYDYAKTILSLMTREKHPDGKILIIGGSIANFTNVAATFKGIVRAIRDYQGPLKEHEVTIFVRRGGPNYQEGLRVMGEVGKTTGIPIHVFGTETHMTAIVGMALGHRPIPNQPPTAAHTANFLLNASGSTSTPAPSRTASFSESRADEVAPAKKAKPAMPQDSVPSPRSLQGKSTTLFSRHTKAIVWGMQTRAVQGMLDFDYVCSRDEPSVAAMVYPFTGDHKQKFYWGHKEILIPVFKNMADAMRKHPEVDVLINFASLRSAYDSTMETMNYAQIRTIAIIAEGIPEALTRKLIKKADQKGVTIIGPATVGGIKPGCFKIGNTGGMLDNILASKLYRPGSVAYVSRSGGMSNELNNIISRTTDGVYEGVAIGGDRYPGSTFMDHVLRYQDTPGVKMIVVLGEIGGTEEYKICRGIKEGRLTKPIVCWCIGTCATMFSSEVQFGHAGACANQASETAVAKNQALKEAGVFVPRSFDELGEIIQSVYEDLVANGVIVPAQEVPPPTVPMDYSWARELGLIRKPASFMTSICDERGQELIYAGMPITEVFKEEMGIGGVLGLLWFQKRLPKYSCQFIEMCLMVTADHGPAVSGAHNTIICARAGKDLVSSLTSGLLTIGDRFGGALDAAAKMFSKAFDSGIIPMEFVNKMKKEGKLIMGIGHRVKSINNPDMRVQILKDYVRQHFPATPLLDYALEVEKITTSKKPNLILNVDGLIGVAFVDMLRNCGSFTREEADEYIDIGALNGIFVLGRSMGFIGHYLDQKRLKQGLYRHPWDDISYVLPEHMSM
# [2] = target: T1, ATP-citrate synthase (Homo sapiens); test: Inhibition of ATP citrate lyase (unknown origin) at 100 uM using sodium citrate as substrate in presence of CoA/ATP by ADP-Glo luminescence assay relative to control
# [3] = target: T1, ATP-citrate synthase (Homo sapiens); test: Inhibition of ATP citrate lyase (unknown origin) at 10 uM using sodium citrate as substrate in presence of CoA/ATP by ADP-Glo luminescence assay relative to control
# ATP-citrate synthase = target: T2, ATP-citrate synthase (Homo sapiens, UniProt P53396); test: Inhibition of ATP citrate lyase (unknown origin) using sodium citrate as substrate by ADP-Glo luminescence assay
# T2 sequence (P53396 whole entry): T1 sequence (whole entry)
inhibition [1],inhibition [2] [%],inhibition [3] [%],IC50 (ATP-citrate synthase) [µM],Compound
Active,–,–,–,O=C(O)C[C@@](O)(C(=O)O)[C@H](O)C(=O)O
–,88,18,–,Cc1c(OCc2ccc(C(=O)O)o2)ccc2c3c(c(=O)oc12)CCCC3
–,95,28,–,Cc1oc2c(cc(NS(=O)(=O)c3ccc(F)cc3)c3ccccc32)c1C(=O)O
–,59,16,–,Cc1oc2c(cc(NS(=O)(=O)c3ccc(C(C)(C)C)cc3)c3ccccc32)c1C(=O)O
–,9,6,–,Cc1oc2ccc(OC(C(=O)O)c3ccccc3)cc2c1C(=O)O (centres undefined)
–,100,95,–,CCCCCCc1cc2c3c(c(=O)oc2cc1OCc1cc(C(=O)O)oc1C)CCCC3
–,84,32,–,Cc1oc(C(=O)O)cc1COc1ccc2c(oc(=O)c3ccccc32)c1C
–,64,3,–,Cc1oc(C(=O)O)cc1COc1ccc2c(c1)oc(=O)c1ccccc12
–,101,45,11.9,Cc1oc(C(=O)O)cc1COc1ccc2c(C)c(Cc3ccccc3)c(=O)oc2c1
–,97,42,13.8,CCc1ccc(S(=O)(=O)Nc2cc3c(C(=O)O)c(C)oc3c3ccccc23)cc1
–,42,12,–,Cc1ccc(S(=O)(=O)Nc2cc3c(C(=O)O)c(C)oc3c3ccccc23)cc1
Active,–,–,–,O=C(O)C[C@@](O)(C[C@H](O)CCCCCCc1ccc(Cl)cc1Cl)C(=O)O
–,–,–,0.377,COc1ccc(-c2ccccc2)cc1NS(=O)(=O)c1cc(Cl)cc(Cl)c1O
–,49,9,–,O=C(O)c1ccc(COc2ccc3c(c2)oc(=O)c2ccccc23)o1
–,90,17,–,Cc1oc(C(=O)O)cc1COc1ccc2c3c(c(=O)oc2c1C)CCCC3
